The values below come from patent US4477659A, “Cephalosporin compound” (Asahi Kasei Kogyo Kabushiki Kaisha, priority 1981, dated 1984).

Data set [1] in a line: Absorption test, oral, rats, solution in buffer pH 7 (Example 16). It is filed as in vivo, Male Wistar rats. The conditions noted are these: blood, 50 mg/kg oral, rat, average of 6, read-out: Blood Concentration of the Compound. The protocol:
The absorption test of the compounds as obtained in Examples 1-11 were tested by the following method.
(§1) Male Wistar rats weighing 180-250 g were fed with only water overnight. The next day the rats were orally administered with 50 mg/kg of a test compound which was dissolved in a buffer solution having pH of 7. The concentration of the compound in blood of the tested animals (one group consisting of 6 animals) was measured 0.5, 1, 2 and 4 hours after the administration by Bioassay method by using Bacillus subtilis ATCC 6633 strain as an indicator bacteria. In the measurement, an ordinary culture medium was employed, and the preparation of the standard solution and other method were carried out in according to Japanese Antibiotical Pharmaceutical Standards. Further, the concentration of the compound in blood was also measured by high performance liquid chromatography. The blood concentration shown below was an average value of each animal group.

Data set [2] is described as follows: Blood concentration, oral, rats, suspended in CMC aqueous solution (Example 17). Format: in vivo, Male Wistar rats. To be noted: 50 mg/kg oral, rat; for concentration at 0.5 h / concentration at 1 h / concentration at 4 h: blood, read-out: Blood Concentration of the Compound. The method, then: as §1
The blood concentration of the compounds as obtained in Examples 12-15 and the compounds as obtained in the same manner as in Examples 3 and 12, respectively, was measured. The measurement was carried out in the same manner as Example 16 except that the test compound was suspended in a CMC aqueous solution instead of being dissolved in a buffer solution having pH of 7.

With `Cc1nnc(SCC2=C(C(=O)O)N3C(=O)[C@@H](NC(=O)CSc4nc(C[C@H](N)C(=O)O)c[nH]4)[C@H]3SC2)s1` [Example 3, 7-β-[4-(2'-amino-2'-carboxy)ethylimidazol-2-yl-thioacetamido]-3-[2-(2-methyl-1,3,4-thiazolyl)thiomethyl]-3-cephem-4-carboxylic acid], in data set [1], the concentration at 0.5 h stood at 11300 ng/mL, the concentration at 1 h turned out to be 12400 ng/mL, the concentration at 2 h was determined as 13700 ng/mL and the concentration at 4 h was determined as 9400 ng/mL.

For the compound `N[C@@H](Cc1c[nH]c(SCC(=O)N[C@@H]2C(=O)N3C(C(=O)O)=C(Cl)CS[C@H]23)n1)C(=O)O` [Example 10, 7-β-[4-(2'-amino-2'-carboxy)ethylimidazol-2-yl-thioacetamido]-3-chloro-3-cephem-4-carboxylic acid], in data set [1], the concentration at 0.5 h was determined as 7400 ng/mL, the concentration at 1 h was determined as 5900 ng/mL, the concentration at 2 h is 3000 ng/mL and the concentration at 4 h was 1800 ng/mL.

`Cn1nnnc1SCC1=C(C(=O)O)N2C(=O)[C@@H](NC(=O)CSc3nc(C[C@H](N)C(=O)O)c[nH]3)[C@H]2SC1` [Example 2, 7-β-[4-(2'-amino-2'-carboxy)ethylimidazol-2-yl-thioacetamido]-3-[(1-methyl-1H-tetrazol-5-yl)thiomethyl]-3-cephem-4-carboxylic acid]: in data set [1], the concentration at 0.5 h was determined as 4700 ng/mL, the concentration at 1 h stood at 2900 ng/mL, the concentration at 2 h stood at 2000 ng/mL and the concentration at 4 h was 1000 ng/mL.

Turning to `N[C@@H](Cc1c[nH]c(SCC(=O)N[C@@H]2C(=O)N3C(C(=O)O)=C(CSc4nc[nH]n4)CS[C@H]23)n1)C(=O)O` [Example 4, 7-β-[4-(2'-amino-2'-carboxy)ethylimidazol-2-yl-thioacetamido]-3-[(1,3,4-triazole)thiomethyl]-3-cephem-4-carboxylic acid], in data set [1], the concentration at 0.5 h was 2100 ng/mL, the concentration at 1 h came out at 1200 ng/mL, the concentration at 2 h amounted to 400 ng/mL and the concentration at 4 h was found to be 100 ng/mL.

For the compound `CO[C@@]1(NC(=O)CSc2nc(C[C@H](N)C(=O)OCOC(C)=O)c[nH]2)C(=O)N2C(C(=O)OCOC(C)=O)=C(CSc3nnnn3C)CS[C@@H]21` [Example 14, 7-β-[4-(2'-amino-2'-carboxy)ethylimidazol-2-yl-thioacetamido]-7α-methoxy-3-[(1-methyl-1H-tetrazol-5-yl)thiomethyl]-3-cephem-4-carboxylic acid diacetoxymethyl ester], in data set [2] (0.5 hr.), the concentration at 0.5 h worked out at 6800 ng/mL. Also, in data set [2] (1 hr.), the concentration at 1 h came out at 4100 ng/mL. Also, the concentration at 4 h in data set [2] (4 hrs.) is 2300 ng/mL.

`N[C@@H](Cc1c[nH]c(SCC(=O)N[C@@H]2C(=O)N3C(C(=O)O)=CCS[C@H]23)n1)C(=O)O` [Example 11, 7-β-[4-(2'-amino-2'-carboxy)ethylimidazol-2-yl-thioacetamido]-3-cephem-4-carboxylic acid]: in data set [1], the concentration at 0.5 h is 8300 ng/mL, the concentration at 1 h is 7400 ng/mL, the concentration at 2 h was determined as 4200 ng/mL and the concentration at 4 h is 1800 ng/mL.

Consider “7-β-[4-(2'-amino-2'-carboxy)ethylimidazol-2-yl-thioacetamido]-7α-methoxy-3-[(1-methyl-1H-tetrazol-5-yl) thiomethyl]-3-cephem-4-carboxylic acid ditert-butylcarboxymethyl ester [(19)]”, for which the “Blood Concentration of the Compound” value in data set [2] (0.5 hr.) is 7200 ng/mL; in data set [2] (1 hr.), 3900 ng/mL; in data set [2] (4 hrs.), 1600 ng/mL.

With `CO[C@@]1(NC(=O)CSc2nc(C[C@H](N)C(=O)O)c[nH]2)C(=O)N2C(C(=O)O)=C(CSc3nnnn3C)CS[C@@H]21` [Example 13, 7-β-[4-(2'-amino-2'-carboxy)ethylimidazol-2-yl-thioacetamido]-7α-methoxy-3-[(1-methyl-1H-tetrazol-5-yl)thiomethyl]-3-cephem-4-carboxylic acid], the concentration at 0.5 h in data set [2] (0.5 hr.) was 4600 ng/mL. Besides, in data set [2] (1 hr.), the concentration at 1 h turned out to be 3100 ng/mL. Further, in data set [2] (4 hrs.), the concentration at 4 h stood at 1100 ng/mL.

Regarding `CO[C@@]1(NC(=O)CSc2nc(C[C@H](N)C(=O)O)c[nH]2)C(=O)N2C(C(=O)O)=C(COC(C)=O)CS[C@@H]21` [Example 12, 7-β-[4-(2'-amino-2'-carboxy)ethylimidazol-2-yl-thioacetamido]-7α-methoxy-3-acetoxymethyl-3-cephem-4-carboxylic acid], the concentration at 0.5 h in data set [2] (0.5 hr.) came out at 3900 ng/mL. Besides, in data set [2] (1 hr.), the concentration at 1 h turned out to be 1700 ng/mL. In data set [2] (4 hrs.), the concentration at 4 h came out at 400 ng/mL.

Turning to `Cn1nnnc1SCC1=C(C(=O)O)N2C(=O)[C@@H](NC(=O)CSc3nc(C[C@H](NC=O)C(=O)O)c[nH]3)[C@H]2SC1` [Example 15, 7-β-[4-(2'-formamido-2'-carboxy)ethylimidazol-2-yl-thioacetamido]-3-[(1-methyl-1H-tetrazol-5-yl)thiomethyl]-3-cephem-4-carboxylic acid], the concentration at 0.5 h in data set [2] (0.5 hr.) turned out to be 3900 ng/mL. For the same compound, the concentration at 1 h in data set [2] (1 hr.) is 2700 ng/mL. Moreover, in data set [2] (4 hrs.), the concentration at 4 h worked out at 1700 ng/mL.

Take `Cn1nncc1SCC1=C(C(=O)O)N2C(=O)[C@@H](NC(=O)CSc3nc(C[C@H](N)C(=O)O)c[nH]3)[C@H]2SC1` [Example 7, 7-β-[4-(2'-amino-2'-carboxy)ethylimidazol-2-yl-thioacetamido]-3-[(1-methyl-1H-1,2,3-triazole)thiomethyl]-3-cephem-4-carboxylic acid]: in data set [1], the concentration at 0.5 h came to 4200 ng/mL, the concentration at 1 h came out at 2100 ng/mL, the concentration at 2 h stood at 700 ng/mL and the concentration at 4 h is 400 ng/mL.

Turning to `COC1=C(C(=O)O)N2C(=O)[C@@H](NC(=O)CSc3nc(C[C@H](N)C(=O)O)c[nH]3)[C@H]2SC1` [Example 9, 7-β-[4-(2'-amino-2'-carboxy)ethylimidazol-2-yl-thioacetamido]-3-methoxy-3-cephem-4-carboxylic acid], in data set [1], the concentration at 0.5 h turned out to be 8400 ng/mL, the concentration at 1 h came out at 6700 ng/mL, the concentration at 2 h is 3400 ng/mL and the concentration at 4 h worked out at 1100 ng/mL.

For `Cc1nnc(SCC2=C(C(=O)O)N3C(=O)[C@@H](NC(=O)CSc4nc(C[C@H](N)C(=O)O)c[nH]4)[C@H]3SC2)o1` [Example 6, 7-β-[4-(2'-amino-2'-carboxy)ethylimidazol-2-yl-thioacetamido]-3-[(2-methyl-1,3,4-oxadiazole)thiomethyl]-3-cephem-4-carboxylic acid], in data set [1], the concentration at 0.5 h was 8000 ng/mL, the concentration at 1 h stood at 5300 ng/mL, the concentration at 2 h was 3600 ng/mL and the concentration at 4 h stood at 1000 ng/mL.

Regarding `CC1=C(C(=O)O)N2C(=O)[C@@H](NC(=O)CSc3nc(C[C@H](N)C(=O)O)c[nH]3)[C@H]2SC1` [Example 8, 7-β-[4-(2'-amino-2'-carboxy)ethylimidazol-2-yl-thioacetamido]-3-methyl-3-cephem-4-carboxylic acid], in data set [1], the concentration at 0.5 h was 14900 ng/mL, the concentration at 1 h came out at 11300 ng/mL, the concentration at 2 h is 7200 ng/mL and the concentration at 4 h came to 4000 ng/mL.

Regarding `N[C@@H](Cc1c[nH]c(SCC(=O)N[C@@H]2C(=O)N3C(C(=O)O)=C(CSc4cnn[nH]4)CS[C@H]23)n1)C(=O)O` [Example 5, 7-β-[4-(2'-amino-2'-carboxy)ethylimidazol-2-yl-thioacetamido]-3-[(1,2,3-triazole)thiomethyl]-3-cephem-4-carboxylic acid], in data set [1], the concentration at 0.5 h was found to be 12400 ng/mL, the concentration at 1 h was 13700 ng/mL, the concentration at 2 h stood at 14300 ng/mL and the concentration at 4 h turned out to be 10200 ng/mL.
